Assay results: paper PMC12724327, “Structure-guided discovery of a small molecule inhibitor of SARS-CoV-2 main protease with potent in vitro and in vivo antiviral activities” (Journal of Virology, 2025)
Where two headings read alike, the source gives them in different places.

Legend:
SARS-CoV-2 M^pro = SARS-CoV-2 M^pro (Severe acute respiratory syndrome coronavirus 2, UniProt P0DTD1); assay: biochemical; assay type: biochemical; conditions: for IC50: 150 nM enzyme, 30 min pre-incubation at 37°C
SARS-CoV-2 JN.1.1 = assay: Viral load reduction assay in VeroE6-TMPRSS2 cells, JN.1.1; assay type: cell-based
SARS-CoV-2 [1] = assay: Antiviral activity in human lung Calu-3 cells; assay type: cell-based; conditions: Severe acute respiratory syndrome coronavirus 2
[2] = system: SARS-CoV-2 Alpha strain (B.1.1.7); assay type: in vivo, K18-hACE2 mice
[3] = 300 mg/kg/day for three days, body weight recorded 14 days, no virus infection
SARS-CoV-2 B.1.1.7/Alpha = assay: Viral load reduction assay in VeroE6-TMPRSS2 cells, Alpha; assay type: cell-based
SARS-CoV-2 [4] = assay: In vivo antiviral evaluation in the golden Syrian hamster model
WT SARS-CoV-2 HKU-001a = assay type: cell-based
[5] = system: SARS-CoV-2 Omicron BA.5.2; assay: Viral load reduction assay in VeroE6-TMPRSS2 cells, BA.5.2; assay type: cell-based
SARS-CoV-2 XBB.1.5 = assay: Viral load reduction assay in VeroE6-TMPRSS2 cells, XBB.1.5; assay type: cell-based
SARS-CoV-2 EG.5.1 = assay: Viral load reduction assay in VeroE6-TMPRSS2 cells, EG.5.1; assay type: cell-based
VeroE6-TMPRSS2 cells = conditions: 48 h, CellTiter-Glo
Method: (B) Cytotoxicity of H135 in VeroE6-TMPRSS2 cells was measured by CellTiter-Glo assay for 48 h.

Cathepsin B = molecular target: T1, Cathepsin B (Homo sapiens, UniProt P07858); assay: Selectivity assay, Cathepsin B inhibitor screening kit; assay type: biochemical
T1 construct: purchased BioVision K147-100
Method: (§1) The biochemical activity against several common human cysteine proteases was assessed using Cathepsin B inhibitor screening kit (BioVision, K147-100), Cathepsin L inhibitor screening kit (BioVision, K161-100), and Caspase 2 inhibitor drug screening kit (BioVision, K152-100) following the manufacturer’s instructions.

Caspase 2 = molecular target: T2, Caspase 2 (Homo sapiens, UniProt P42575); assay: Selectivity assay, Caspase 2 inhibitor drug screening kit; assay type: biochemical
T2 construct: purchased BioVision K152-100
Method: as §1

Cathepsin L = molecular target: T3, Cathepsin L (Homo sapiens, UniProt P07711); assay: Selectivity assay, Cathepsin L inhibitor screening kit; assay type: biochemical
T3 construct: purchased BioVision K161-100
Method: as §1

[6] = system: SARS-CoV-2 B.1.617.2/Delta; assay: Viral load reduction assay in VeroE6-TMPRSS2 cells, Delta; assay type: cell-based

T2 sequence (P42575 348-452): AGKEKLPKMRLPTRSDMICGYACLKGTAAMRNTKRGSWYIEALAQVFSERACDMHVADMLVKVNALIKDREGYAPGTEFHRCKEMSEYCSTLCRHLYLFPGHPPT
T2 sequence (P42575 170-325): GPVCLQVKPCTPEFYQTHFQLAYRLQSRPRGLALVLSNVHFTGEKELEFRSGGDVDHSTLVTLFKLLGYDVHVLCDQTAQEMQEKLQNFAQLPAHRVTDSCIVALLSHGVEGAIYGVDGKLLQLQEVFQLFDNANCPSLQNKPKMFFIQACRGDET
T3 sequence (P07711 114-333): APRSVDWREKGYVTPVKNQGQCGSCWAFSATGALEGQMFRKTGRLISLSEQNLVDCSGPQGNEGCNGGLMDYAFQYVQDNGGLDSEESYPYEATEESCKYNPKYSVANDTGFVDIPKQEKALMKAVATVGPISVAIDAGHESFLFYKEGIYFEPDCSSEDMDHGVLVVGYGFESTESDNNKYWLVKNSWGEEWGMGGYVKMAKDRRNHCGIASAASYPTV

`CO[C@@H]1C[C@@H](C(=O)N[C@H](C#N)C[C@@H]2CCNC2=O)N(C(=O)[C@@H](NC(=O)OC(C)(C)C)C(C)(C)C)C1` [H138] showed an IC50 (SARS-CoV-2 M^pro) of 2960 nM.

With `CC(C)(C)OC(=O)N[C@H](C(=O)N1C[C@H](OC(F)F)C[C@H]1C(=O)N[C@H](C#N)C[C@@H]1CCNC1=O)C1CCCCC1` [H130] the IC50 (SARS-CoV-2 M^pro; mean ± SEM) was 70.1 ± 2.8 nM.

With `CC(C)(C)[C@H](NC(=O)N1CC2(COC2)C1)C(=O)N1C[C@H](OC(F)F)C[C@H]1C(=O)N[C@H](C#N)C[C@@H]1CCNC1=O` [H129] the IC50 (SARS-CoV-2 M^pro; mean ± SEM) was 924 nM.

With `CC(C)(C)OC(=O)N[C@H](C(=O)N1C[C@H](OC(F)(F)F)C[C@H]1C(=O)N[C@H](C#N)C[C@@H]1CCNC1=O)C(C)(C)C` [H121] the IC50 (SARS-CoV-2 M^pro; mean ± SEM) was 68.6 ± 2 nM.

`CC(C)(C)OC(=O)N[C@H](C(=O)N1C[C@H](Oc2ccccc2)C[C@H]1C(=O)N[C@H](C#N)C[C@@H]1CCNC1=O)C(C)(C)C` [H140] gave an IC50 (SARS-CoV-2 M^pro) of 6770 nM.

For `CC(C)(C)OC(=O)N[C@H](C(=O)N[C@@H](Cc1ccccc1)C(=O)N[C@H](C#N)C[C@@H]1CCNC1=O)C(C)(C)C` [H109], the IC50 (SARS-CoV-2 M^pro; mean ± SEM) was 407 ± 5.6 nM.

With `CC(C)(C)OC(=O)N[C@H](C(=O)N1C[C@H](OC(F)F)C[C@H]1C(=O)N[C@H](C#N)C[C@@H]1CCNC1=O)C(C)(C)C` [H117] the IC50 (SARS-CoV-2 M^pro; mean ± SEM) was 151 ± 5.2 nM.

With `CN(C(=O)[C@@H](NC(=O)OC(C)(C)C)C(C)(C)C)[C@@H](Cc1ccccc1)C(=O)N[C@H](C#N)C[C@@H]1CCNC1=O` [H119] the IC50 (SARS-CoV-2 M^pro; mean ± SEM) was 625 ± 10.5 nM and the “decrease in enzyme inhibitory activity” value (SARS-CoV-2 M^pro; relative to H109) was 1.5 fold.

For `CC(C)(C)OC(=O)N1C[C@H](OC(F)F)C[C@@H]1C(=O)N1C[C@H](OC(F)F)C[C@H]1C(=O)N[C@H](C#N)C[C@@H]1CCNC1=O` [H141], the IC50 (SARS-CoV-2 M^pro) was > 25000 nM.

With `N#C[C@H](C[C@@H]1CCNC1=O)NC(=O)[C@@H]1C[C@@H](OC(F)(F)F)CN1C(=O)[C@@H](NC(=O)C1(F)CC1)C1CCCCC1` [H135] the “decrease of viral yield in cell culture supernatant” value (from here on “decrease of viral yield”) (SARS-CoV-2 JN.1.1) was “more than 5 log10”, the EC50 (SARS-CoV-2 [1]) was 122 ± 13 nM and the “body weight of infected mice” value ([2]; mouse, in vivo) was “less body weight loss”. For the same compound, the delayed death ([2]; mouse, in vivo) was 0.6 day/mouse, the fatality rate ([2]; mouse, in vivo) was 100% and the “reduction of SARS-CoV-2 live virus titers in mouse lung” value ([2]; mouse, in vivo) was “more than 2 logs10”. For the same compound, the “toxicity as reflected by animal body weight change” value [3] was “Negligible toxicity”, the “decrease of viral yield” value (SARS-CoV-2 B.1.1.7/Alpha) was “more than 5 log10” and the “decrease of viral RNA copies in lung” value (SARS-CoV-2 [4]; hamster, in vivo) was ~ 0.7 log. For the same compound, the “decrease of viral RNA copies in trachea” value (SARS-CoV-2 [4]; hamster, in vivo) was ~ 0.65 log, the “live virus titer in hamster lungs” value (SARS-CoV-2 [4]; hamster, in vivo) was “significantly reduced” and the “decrease of viral yield” value (WT SARS-CoV-2 HKU-001a) was ~ 7 log10. The “decrease of viral yield” value [5] was “more than 5 log10”, the “decrease of viral yield” value (SARS-CoV-2 XBB.1.5) was “more than 5 log10” and the “decrease of viral yield” value (SARS-CoV-2 EG.5.1) was “more than 5 log10”. The “dose up to which no cytotoxicity was found” value (VeroE6-TMPRSS2 cells) was ≥ 400 µM, the IC50 (SARS-CoV-2 M^pro; mean ± SEM) was 12.7 ± 0.1 nM and the Ki (SARS-CoV-2 M^pro; read-out: inhibitory constant (Ki)) was 156 nM. For the same compound, the “SARS-CoV-2 M^pro inhibitory potency enhanced” value (SARS-CoV-2 M^pro; relative to hit compound H109) was 32 folds, the IC50 (Cathepsin B) was > 100000 nM and the IC50 (Caspase 2) was > 100000 nM. For the same compound, the IC50 (Cathepsin L) was > 100000 nM and the “decrease of viral yield” value [6] was “more than 5 log10”.

`CC(C)(C)OC(=O)N[C@H](C(=O)N1C[C@H](OC(C)(C)C)C[C@H]1C(=O)N[C@H](C#N)C[C@@H]1CCNC1=O)C(C)(C)C` [H118] showed an IC50 (SARS-CoV-2 M^pro; mean ± SEM) of 310 ± 18.9 nM.

Compound `CC(C)(C)[C@H](NC(=O)C1(F)CC1)C(=O)N1C[C@H](OC(F)F)C[C@H]1C(=O)N[C@H](C#N)C[C@@H]1CCNC1=O` [H124] has an IC50 (SARS-CoV-2 M^pro; mean ± SEM) of 102 ± 2 nM.

Compound `CC(C)(C)OC(=O)N[C@H](C(=O)N1C[C@H](OC(F)F)C[C@H]1C(=O)N[C@H](C#N)C[C@@H]1CCNC1=O)C1CCCC1` [H131] has an IC50 (SARS-CoV-2 M^pro; mean ± SEM) of 79.2 ± 2.1 nM.

`N#C[C@H](C[C@@H]1CCNC1=O)NC(=O)[C@@H]1C[C@@H](OC(F)F)CN1C(=O)[C@@H](NC(=O)C1(F)CC1)C1CCCCC1` [H136] gave an IC50 (SARS-CoV-2 M^pro; mean ± SEM) of 43.4 ± 2 nM.

Compound `CC(C)(C)[C@H](NC(=O)C(F)(F)F)C(=O)N1C[C@H](OC(F)F)C[C@H]1C(=O)N[C@H](C#N)C[C@@H]1CCNC1=O` [H122] has an IC50 (SARS-CoV-2 M^pro; mean ± SEM) of 106 ± 2.8 nM.

With `CC(C)(C)OC(=O)N[C@H](C(=O)N1C[C@H](OCc2ccccc2)C[C@H]1C(=O)N[C@H](C#N)C[C@@H]1CCNC1=O)C(C)(C)C` [H139] the IC50 (SARS-CoV-2 M^pro) was 3410 nM.

In the case of `CC(C)(C)[C@H](NC(=O)C(F)(F)F)C(=O)N1C[C@H]2[C@@H]([C@H]1C(=O)N[C@H](C#N)C[C@@H]1CCNC1=O)C2(C)C` [PF-07321332, nirmatrelvir, reference compound], the “body weight of infected mice” value ([2]; 150 mg/kg daily intraperitoneal, […]) is reported as “body weight benefits”, the “mice protected from death” value ([2]; mouse, in vivo) is reported as 40% and the “live virus titer in hamster lungs” value (SARS-CoV-2 [4]; […], H135 300 mg/kg IP QD, nirmatrelvir 300 mg/kg PO BID, three days, P < 0.001 vs DMSO) is reported as “significantly reduced”.

Work on `CC(C)(C)[C@H](NC(=O)C1CCC(F)(F)CC1)C(=O)N1C[C@H](OC(F)F)C[C@H]1C(=O)N[C@H](C#N)C[C@@H]1CCNC1=O` [H123] yielded an IC50 (SARS-CoV-2 M^pro; mean ± SEM) of 860.9 ± 5.1 nM.
